In the NIST ThermoML archive (doi:10.1016/j.fluid.2009.09.024):
Values joined by “and” are separate entries in the source; they are usually repeats but may differ in a detail not shown here. Identical values can stand only once.

What was measured:
[1] = xn = mol fraction of the nth substance listed; settings: Liquid, Vibrating tube method
[2] = for mass density: Vibrating tube method; for vapor or sublimation pressure: Closed cell (Static) method

O=S1(=O)CCCC1 [sulfolane] + Cc1ccccc1C
mass density [kg/m3], [1]
Settings | 333.15 K | 353.15 K
x2 = 0 | 1231.12 | 1214.39
x2 = 0.01 | 1227.27 | 1210.53
x2 = 0.015 | 1225.35 | 1208.6
x2 = 0.02 | 1223.42 | 1206.67
x2 = 0.03 | 1219.57 | 1202.81
x2 = 0.1 | 1192.25 | 1175.45
x2 = 0.2 | 1153.84 | 1136.98
x2 = 0.3 | 1115.37 | 1098.46
x2 = 0.4 | 1076.99 | 1060.02
x2 = 0.499 | 1038.59 | 1021.56
x2 = 0.599 | 1000.24 | 983.157
x2 = 0.699 | 961.436 | 944.296
x2 = 0.801 | 922.401 | 905.202
x2 = 0.899 | 884.731 | 867.477

c1ccccc1 [benzene]
[2]
Settings | mass density, 333.15 K [kg/m3] | mass density, 353.15 K [kg/m3] | vapor or sublimation pressure, 333.15 K [kPa] | vapor or sublimation pressure, 353.15 K [kPa]
Gas | 1.5172 | 2.69 | – | –
Liquid | 835.696 | 814.086 | 52.45 | 100

c1ccccc1 [benzene] + CCCCCCCCC
[1], x1 = 1
Settings | mass density [kg/m3]
333.15 K | 835.696
353.15 K | 814.086

O=S1(=O)CCCC1 [sulfolane]
[2], Liquid
Settings | mass density [kg/m3] | vapor or sublimation pressure [kPa]
333.15 K | 1231.12 | 0.01
353.15 K | 1214.39 | 0.04

Cc1ccccc1C [1,2-dimethylbenzene]
[2]
Settings | mass density, 333.15 K | mass density, 353.15 K | vapor or sublimation pressure, 333.15 K | vapor or sublimation pressure, 353.15 K
Gas | – | 0.4397 kg/m3 and 0.4571 kg/m3 | – | –
Liquid | 845.8 kg/m3 and 845.839 kg/m3 | 828.5 kg/m3 and 828.528 kg/m3 | 5.32 kPa and 5.44 kPa | 12.8 kPa and 12.66 kPa

Cc1ccccc1C [1,2-dimethylbenzene] + Cc1ccccc1
mass density [kg/m3], [1]
Settings | 333.15 K | 353.15 K
x2 = 0 | 845.8 | 828.5
x2 = 0.102 | – | 826.692
x2 = 0.108 | 844.136 | –
x2 = 0.202 | – | 824.931
x2 = 0.203 | 842.673 | –
x2 = 0.299 | – | 823.222
x2 = 0.301 | 841.173 | –
x2 = 0.4 | 839.661 | 821.449
x2 = 0.499 | 838.134 | 819.705
x2 = 0.6 | – | 817.918
x2 = 0.601 | 836.576 | –
x2 = 0.699 | 835.072 | 816.176
x2 = 0.799 | – | 814.417
x2 = 0.8 | 833.533 | –
x2 = 0.899 | – | 812.661
x2 = 0.9 | 831.999 | –

Cc1cccc(C)c1 [1,3-dimethylbenzene] + O=S1(=O)CCCC1
[1], x1 = 1
Settings | mass density [kg/m3]
333.15 K | 829.305
353.15 K | 811.602

Cc1ccccc1 [toluene]
[2]
Settings | mass density, 333.15 K [kg/m3] | mass density, 353.15 K [kg/m3] | vapor or sublimation pressure, 333.15 K [kPa] | vapor or sublimation pressure, 353.15 K [kPa]
Gas | 0.6829 | 1.3863 | – | –
Liquid | 830.467 | 810.89 | 18.62 | 38.4
